Data from the NIST ThermoML archive (doi:10.1021/je060271a).

Conditions: Liquid, Vibrating tube method

CCCC(=O)OCC(COC(=O)CCC)(COC(=O)CCC)COC(=O)CCC [pentaerythritol tetrabutyrate]
Conditions | mass density [kg/m3]
323.14 K, 26626 kPa | 1043
323.14 K, 26670 kPa | 1042.8
323.14 K, 26714 kPa | 1042.8
323.14 K, 26767 kPa | 1043
323.14 K, 26810 kPa | 1043
323.14 K, 26863 kPa | 1043
323.14 K, 26908 kPa | 1043.1
323.14 K, 26952 kPa | 1043.1
323.14 K, 26996 kPa | 1043.1
323.14 K, 27582 kPa | 1043.5
323.14 K, 27638 kPa | 1043.5
323.14 K, 27684 kPa | 1043.6
323.14 K, 27740 kPa | 1043.6
323.14 K, 27788 kPa | 1043.6
323.14 K, 27834 kPa | 1043.6
323.14 K, 27946 kPa | 1043.8
323.14 K, 28044 kPa | 1043.9
323.14 K, 28300 kPa | 1044
323.14 K, 28359 kPa | 1044
323.14 K, 28792 kPa | 1044.3
323.14 K, 28843 kPa | 1044.3
323.14 K, 28902 kPa | 1044.3
323.14 K, 28941 kPa | 1044.3
323.14 K, 29012 kPa | 1044.3
323.14 K, 29875 kPa | 1044.9
323.14 K, 29913 kPa | 1045
323.14 K, 29948 kPa | 1045.1
323.14 K, 29992 kPa | 1045
323.14 K, 30269 kPa | 1045.3
323.14 K, 30315 kPa | 1045.2
323.14 K, 30353 kPa | 1045.4
323.14 K, 30391 kPa | 1045.3
323.14 K, 30431 kPa | 1045.3
323.14 K, 30476 kPa | 1045.2
323.14 K, 30514 kPa | 1045.3
323.14 K, 32076 kPa | 1046.4
323.14 K, 32110 kPa | 1046.4
323.14 K, 32957 kPa | 1046.8
323.14 K, 33000 kPa | 1046.9
323.14 K, 33035 kPa | 1046.8
323.14 K, 33078 kPa | 1046.9
323.14 K, 33115 kPa | 1046.9
323.14 K, 33350 kPa | 1047
323.14 K, 33751 kPa | 1047.3
323.14 K, 33878 kPa | 1047.3
323.14 K, 33919 kPa | 1047.4
323.14 K, 33970 kPa | 1047.4
323.15 K, 3349 kPa | 1027.1
323.15 K, 3467.5 kPa | 1027.3
323.15 K, 3496.8 kPa | 1027.3
323.15 K, 3562.1 kPa | 1027.3
323.15 K, 5277.4 kPa | 1028.8
323.15 K, 5278.3 kPa | 1028.7
323.15 K, 5281.4 kPa | 1028.8
323.15 K, 5284.5 kPa | 1028.8
323.15 K, 5287 kPa | 1028.7
323.15 K, 5288.9 kPa | 1028.7
323.15 K, 5289.7 kPa | 1028.8
323.15 K, 5290.8 kPa | 1028.8
323.15 K, 5291.3 kPa | 1028.8
323.15 K, 5291.6 kPa | 1028.8
323.15 K, 5292 kPa | 1028.8
323.15 K, 5292.5 kPa | 1028.8
323.15 K, 5292.8 kPa | 1028.8
323.15 K, 5293.4 kPa | 1028.7
323.15 K, 5293.7 kPa | 1028.9
323.15 K, 5293.9 kPa | 1028.8
323.15 K, 5294 kPa | 1028.7
323.15 K, 5294.2 kPa | 1028.9
323.15 K, 5295.1 kPa | 1028.9
323.15 K, 5295.9 kPa | 1029
323.15 K, 5296.1 kPa | 1028.7
323.15 K, 5296.6 kPa | 1028.7
323.15 K, 5297 kPa | 1028.8
323.15 K, 5297.2 kPa | 1028.8
323.15 K, 5297.3 kPa | 1028.9
323.15 K, 5297.5 kPa | 1028.8
323.15 K, 5297.8 kPa | 1028.8
323.15 K, 5324.7 kPa | 1028.9
323.15 K, 5344.4 kPa | 1028.9
323.15 K, 5347.8 kPa | 1028.8
323.15 K, 5370.7 kPa | 1028.8
323.15 K, 5375.9 kPa | 1028.8
323.15 K, 5394.4 kPa | 1028.9
323.15 K, 5418.8 kPa | 1029
323.15 K, 5422.4 kPa | 1028.9
323.15 K, 5445.4 kPa | 1028.9
323.15 K, 5446.8 kPa | 1028.9
323.15 K, 5456 kPa | 1028.9
323.15 K, 5465.5 kPa | 1028.9
323.15 K, 5470.8 kPa | 1029
323.15 K, 5493.7 kPa | 1028.9
323.15 K, 5495.4 kPa | 1028.9
323.15 K, 5499.9 kPa | 1029
323.15 K, 5505.6 kPa | 1028.9
323.15 K, 5511.7 kPa | 1028.8
323.15 K, 5524.8 kPa | 1029
323.15 K, 5529.5 kPa | 1029
323.15 K, 5540.8 kPa | 1028.9
323.15 K, 5549.5 kPa | 1029
323.15 K, 5554.5 kPa | 1029
323.15 K, 5560.3 kPa | 1028.9
323.15 K, 5567.9 kPa | 1028.9
323.15 K, 5573.4 kPa | 1028.9
323.15 K, 5575 kPa | 1029
323.15 K, 5578 kPa | 1029
323.15 K, 5582.5 kPa | 1029
323.15 K, 5586.4 kPa | 1028.9
323.15 K, 5590.4 kPa | 1029.1
323.15 K, 5594.2 kPa | 1029
323.15 K, 5605.6 kPa | 1029
323.15 K, 5630.8 kPa | 1029
323.15 K, 5657.1 kPa | 1029.1
323.15 K, 5683.6 kPa | 1029.1
323.15 K, 5710.2 kPa | 1029.1
323.15 K, 5742 kPa | 1029.1
323.15 K, 5769.2 kPa | 1029.2
323.15 K, 5797 kPa | 1029.2
323.15 K, 5824.3 kPa | 1029.2
323.15 K, 5857.7 kPa | 1029.2
323.15 K, 5886.4 kPa | 1029.2
323.15 K, 5945.6 kPa | 1029.2
323.15 K, 5970.4 kPa | 1029.2
323.15 K, 6001.7 kPa | 1029.3
323.15 K, 6023.4 kPa | 1029.3
323.15 K, 6053.9 kPa | 1029.4
323.15 K, 6080.4 kPa | 1029.4
323.15 K, 6107 kPa | 1029.4
323.15 K, 6138.8 kPa | 1029.4
323.15 K, 6163.7 kPa | 1029.4
323.15 K, 6187.1 kPa | 1029.4
323.15 K, 6215.2 kPa | 1029.6
323.15 K, 6240.1 kPa | 1029.4
323.15 K, 6265 kPa | 1029.5
323.15 K, 6287.3 kPa | 1029.5
323.15 K, 6301.7 kPa | 1029.5
323.15 K, 6311 kPa | 1029.5
323.15 K, 6319.5 kPa | 1029.4
323.15 K, 6327.5 kPa | 1029.6
323.15 K, 6345.8 kPa | 1029.6
323.15 K, 6372.1 kPa | 1029.6
323.15 K, 6398.4 kPa | 1029.7
323.15 K, 6423.8 kPa | 1029.8
323.15 K, 6456.6 kPa | 1029.6
323.15 K, 6483.4 kPa | 1029.6
323.15 K, 6511.5 kPa | 1029.6
